Source: patent publication US7056947B2, “Aza-peptide epoxides” (Georgia Tech Research Corp., priority 2002, dated 2006)

Key:
Assay type in all cases: biochemical
[1] = molecular target: plasmepsin 2 (Plasmodium falciparum, UniProt P46925); test: Aspartyl protease assay, plasmepsin 2; details: preincubated 20 minutes, pH 4.5
Procedure: (§1) Aspartyl Proteases. Assays with the following aspartyl proteases were performed: porcine pepsin, human cathepsin D, plasmepsin 2 (from P. falciparum), and the secreted aspartic proteinase 2 (SAP-2) from Candida albicans. The inhibitors were also assayed with HIV-1 protease. The inhibitors were preincubated for 30 minutes with HIV-1 protease and 20 minutes with the other enzymes. Substrate was then added and the substrate hydrolysis was monitored.

[2] = molecular target: porcine pepsin (Sus scrofa, UniProt P00791); test: Aspartyl protease assay, pepsin; details: preincubated 20 minutes, pH 3.5
Procedure: as §1

[3] = molecular target: human cathepsin D (Homo sapiens, UniProt P07339); test: Aspartyl protease assay, cathepsin D; details: preincubated 20 minutes, pH 3.5
Procedure: as §1

[4] = molecular target: T1, papain (Carica papaya, UniProt P00784); test: Inhibition of papain, incubation method; details: second-order rate constant, NI = no inhibition; for kinact/KI: pH 7.5, read-out: kobs/[I] papain
T1 sequence (P00784 134-345): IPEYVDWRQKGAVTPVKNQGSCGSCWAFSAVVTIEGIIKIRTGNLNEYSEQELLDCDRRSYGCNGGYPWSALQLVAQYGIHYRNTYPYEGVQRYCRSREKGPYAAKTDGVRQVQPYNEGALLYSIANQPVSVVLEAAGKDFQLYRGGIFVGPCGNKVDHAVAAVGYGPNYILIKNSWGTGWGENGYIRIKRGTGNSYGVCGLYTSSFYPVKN
How it was run: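 Incubation-method inactivation: plots of ln vt/vo against time gave pseudo-first-order rate constants. Activity monitored at 405 nm with Z-Phe-Arg-pNA substrate (53.7 μM); papain at about 0.29 mg/mL in pH 7.5 Hepes (50 mM) containing DTT and EDTA (2.5 mM each).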

[5] = molecular target: secreted aspartic proteinase 2 (SAP-2) (Candida albicans, UniProt P0DJ06); test: Aspartyl protease assay, SAP-2; details: preincubated 20 minutes, pH 4.5
Procedure: as §1

[6] = molecular target: cathepsin B (Homo sapiens, UniProt P07858); test: Inhibition of cathepsin B, incubation method; details: second-order rate constant, NI = no inhibition; for kinact/KI: pH 6, read-out: kobs/[I] cathepsin B
Description: The release of 7-amino-4-methylcoumarin was monitored (λex=360 nm, λem=465 nm) using a Tecan Spectra Fluor microplate reader. Pseudo first-order inactivation rate constants were obtained from plots of In vt/vo versus time.

[7] = molecular target: granzyme B (Homo sapiens, UniProt P10144); test: Granzyme B assay; details: preliminary assays, inhibitor 5 mM stock incubated 1 hour, substrate IETD-pNA
Procedure: Granzyme B. Assays with granzyme B were also performed. In the preliminary assays, the inhibitor (10 μL, 5 mM stock solution in DMSO) was incubated with granzyme B (90 μL) for 1 hour. After the incubation period, to these wells was added IETD-pNA (100 μL) and the rate was monitored at 405 nm.

[8] = molecular target: HIV-1 protease (Human immunodeficiency virus type 1 group M subtype B, UniProt P04585); test: Aspartyl protease assay, HIV-1 protease; details: preincubated 30 minutes
Procedure: as §1

[9] = molecular target: dipeptidyl peptidase I (DPPI, cathepsin C) (Homo sapiens, UniProt P53634); test: Inhibition of DPPI
[10] = molecular target: T2, schistosome legumain SmAE (Schistosoma mansoni asparaginyl endopeptidase) (Schistosoma mansoni, UniProt P09841, N192C, form not given); test: Schistosome legumain (SmAE) IC50 assay; details: read-out: Schistosome Legumain IC50; preincubated 20 minutes at room temperature, substrate Cbz-Ala-Ala-Asn-AMC; NI = no inhibition
T2 sequence (P09841 1-429 N192C): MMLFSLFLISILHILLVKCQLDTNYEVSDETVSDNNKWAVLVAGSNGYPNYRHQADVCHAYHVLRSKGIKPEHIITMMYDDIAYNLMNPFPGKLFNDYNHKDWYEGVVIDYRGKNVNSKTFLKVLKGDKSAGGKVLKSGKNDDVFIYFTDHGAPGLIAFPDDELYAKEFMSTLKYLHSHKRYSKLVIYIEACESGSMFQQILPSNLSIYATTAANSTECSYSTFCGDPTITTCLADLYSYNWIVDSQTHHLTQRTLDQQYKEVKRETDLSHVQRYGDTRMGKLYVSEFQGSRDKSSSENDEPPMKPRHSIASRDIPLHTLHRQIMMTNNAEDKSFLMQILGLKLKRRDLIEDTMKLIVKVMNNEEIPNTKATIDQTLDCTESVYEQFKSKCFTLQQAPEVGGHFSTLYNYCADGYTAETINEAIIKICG
Procedure: Studies with the aza-peptide epoxides using the schistosome legumain SmAE (Schistosoma mansoni asparaginyl endopeptidase) were also performed. The enzymatically pure enzyme (zymogen form) was expressed in Pichia without interference from other proteases (ref FEBS lett 2000 466 244–248 Caffrey). The actual active site enzyme concentration is unknown. The lyophilized enzyme (50–100 mg) was reconstituted in 1.5 mL 0.5 M sodium acetate, pH 4.5 containing 4 mM DTT, and left to stand at 37° C. for 3–4 hours to allow for auto-activation of the zymogen. In a black 96-well microtiter plate, 50 uL of activated enzyme was added to an equal volume of 0.1 M citrate-phosphate buffer pH 6.8 containing 4 mM DTT. Inhibitor stock solutions (20 mM) were prepared in DMSO. Serial dilutions (using water) of inhibitor were added (as 1 uL aliquots) to yield concentrations of between 2 and 0.00002 uM inhibitor. The inhibitors were preincubated with the protease at room temperature for 20 minutes before the assay (IC50s were the same when incubated for only 5 minutes). After incubating various inhibitor concentrations with enzyme, 100 uL of the same buffer containing 20 uM substrate (Cbz-Ala-Ala-Asn-AMC) was added to the wells and the reaction monitored at room temperature with linear kinetics up to 20 minutes. Inhibitors are tested in duplicate. A plot of the RFU/min versus the inhibitor concentration [μM] permitted calculation of an IC50 value and estimation of the kobs/[I].

Chain of dipeptidyl peptidase I (DPPI, cathepsin C) (P53634 25-463, species assumed): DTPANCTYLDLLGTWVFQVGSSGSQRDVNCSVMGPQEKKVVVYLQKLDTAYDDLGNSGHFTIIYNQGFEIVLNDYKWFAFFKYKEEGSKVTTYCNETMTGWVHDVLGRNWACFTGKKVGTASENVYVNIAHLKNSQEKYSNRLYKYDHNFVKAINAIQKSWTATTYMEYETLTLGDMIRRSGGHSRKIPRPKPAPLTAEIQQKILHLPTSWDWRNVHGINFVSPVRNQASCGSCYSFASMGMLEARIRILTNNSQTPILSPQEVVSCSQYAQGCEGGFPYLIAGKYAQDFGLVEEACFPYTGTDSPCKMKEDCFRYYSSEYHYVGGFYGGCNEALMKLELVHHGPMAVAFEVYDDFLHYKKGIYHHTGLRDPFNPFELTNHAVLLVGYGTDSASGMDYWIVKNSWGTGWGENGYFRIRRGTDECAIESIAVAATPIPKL
Chain of secreted aspartic proteinase 2 (SAP-2) (P0DJ06 57-398): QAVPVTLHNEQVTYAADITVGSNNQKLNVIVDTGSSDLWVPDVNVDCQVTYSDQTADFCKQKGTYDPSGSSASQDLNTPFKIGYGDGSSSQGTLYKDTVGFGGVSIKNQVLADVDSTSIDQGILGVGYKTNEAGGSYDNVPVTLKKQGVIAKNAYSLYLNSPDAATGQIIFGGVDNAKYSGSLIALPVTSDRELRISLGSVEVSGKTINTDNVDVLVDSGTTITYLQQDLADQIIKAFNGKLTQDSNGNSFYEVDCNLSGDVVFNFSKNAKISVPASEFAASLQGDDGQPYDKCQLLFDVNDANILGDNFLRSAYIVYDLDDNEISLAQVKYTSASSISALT
Chain of porcine pepsin (P00791 60-385): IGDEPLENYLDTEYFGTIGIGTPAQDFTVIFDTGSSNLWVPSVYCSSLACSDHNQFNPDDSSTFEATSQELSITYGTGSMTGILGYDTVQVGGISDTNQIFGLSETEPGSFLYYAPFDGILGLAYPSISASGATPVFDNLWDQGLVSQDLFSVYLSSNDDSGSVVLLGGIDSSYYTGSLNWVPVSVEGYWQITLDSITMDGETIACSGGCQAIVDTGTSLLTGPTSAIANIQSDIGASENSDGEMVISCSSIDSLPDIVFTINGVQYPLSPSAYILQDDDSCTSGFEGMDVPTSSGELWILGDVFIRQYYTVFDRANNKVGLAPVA
Chain of human cathepsin D (P07339 65-412): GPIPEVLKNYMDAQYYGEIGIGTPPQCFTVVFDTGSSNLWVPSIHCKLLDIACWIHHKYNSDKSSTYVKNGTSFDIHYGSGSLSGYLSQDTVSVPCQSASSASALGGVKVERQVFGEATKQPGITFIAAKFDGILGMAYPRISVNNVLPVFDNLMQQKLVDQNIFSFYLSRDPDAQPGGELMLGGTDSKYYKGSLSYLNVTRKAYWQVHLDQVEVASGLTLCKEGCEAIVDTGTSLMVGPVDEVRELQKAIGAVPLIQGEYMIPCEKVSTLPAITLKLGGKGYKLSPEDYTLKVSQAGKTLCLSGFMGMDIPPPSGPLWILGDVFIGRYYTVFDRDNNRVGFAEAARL
Chain of granzyme B (P10144 21-247, species assumed): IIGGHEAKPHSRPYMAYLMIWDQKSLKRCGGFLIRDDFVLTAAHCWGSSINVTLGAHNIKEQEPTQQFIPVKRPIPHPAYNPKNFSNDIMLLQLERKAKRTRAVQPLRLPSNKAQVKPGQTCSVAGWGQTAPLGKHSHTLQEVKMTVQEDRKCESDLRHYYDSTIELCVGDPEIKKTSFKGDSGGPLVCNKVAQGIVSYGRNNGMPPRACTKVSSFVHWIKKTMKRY
Chain of plasmepsin 2 (P46925 125-453): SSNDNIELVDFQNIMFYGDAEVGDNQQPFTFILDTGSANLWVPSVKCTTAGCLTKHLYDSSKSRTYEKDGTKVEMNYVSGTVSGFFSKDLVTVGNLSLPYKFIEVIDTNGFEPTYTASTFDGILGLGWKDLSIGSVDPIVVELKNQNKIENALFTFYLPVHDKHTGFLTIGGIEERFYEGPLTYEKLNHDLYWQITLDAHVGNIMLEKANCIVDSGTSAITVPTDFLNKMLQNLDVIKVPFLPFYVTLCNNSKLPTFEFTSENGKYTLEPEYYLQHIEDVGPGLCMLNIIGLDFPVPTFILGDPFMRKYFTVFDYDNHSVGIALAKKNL

Compound: CCOC(=O)[C@H]1O[C@@H]1C(=O)N(CC(N)=O)NC(=O)[C@H](C)NC(=O)[C@H](C)NC(=O)OCc1ccccc1 [Cbz-Ala-Ala-AAsn-(2S, 3S)-EP-COOEt, (2S,3S)-3-(N^2-(N-Benzyloxycarbonylalanylalanyl)-N^1-carbamoylmethylhydrazinocarbonyl)oxirane-2-carboxylic Acid Ethyl Ester]
- inhibition of plasmepsin 2 [1]: less than 20%
- inhibition of porcine pepsin [2]: less than 20%
- inhibition of human cathepsin D [3]: less than 20%
- kinact/KI [4]: 4 M⁻¹ s⁻¹
- inhibition of SAP-2 [5]: less than 20%
- kinact/KI [6]: 6 M⁻¹ s⁻¹
- inhibition of granzyme B [7]: no inhibition
- inhibition of HIV-1 protease [8]: less than 20%

Compound: CCCC[C@H](NC(=O)OC(C)(C)C)C(=O)NN(CCc1ccccc1)C(=O)[C@@H]1O[C@H]1C(=O)OCC (relative stereo) [Boc-Nle-AHph-trans-EP-COOEt, trans-3-(N^2-(N-tert-Butoxycarbonylnorleucyl)-N^1-phenylethylhydrazinocarbonyl)oxirane-2-carboxylic Acid Ethyl Ester]
- kinact/KI [4]: 1.6 M⁻¹ s⁻¹
- kinact/KI [6]: 1.3 M⁻¹ s⁻¹
- kinact/KI ([9]; read-out: kobs/[I] DPPI): 0.7 M⁻¹ s⁻¹

Compound: CC(NC(=O)OCc1ccccc1)C(=O)NC(C)C(=O)NN(CC(N)=O)C(=O)C1OC1C(=O)NCCc1ccccc1 [12e, (2S,3S)-2-(2-Phenethylcarbamoyl)-3-(N^2-(N -benzyloxycarbonylalanylalanyl)-N^1-carbamoylmethylhydrazinocarbonyl)oxirane]
- IC50 [10]: > 2 µM

Compound: CC(NC(=O)[C@@H]1O[C@H]1C(=O)N(CC(N)=O)NC(=O)[C@H](C)NC(=O)[C@H](C)NC(=O)OCc1ccccc1)C(=O)NCc1ccccc1 (stereo partly drawn) [12f, (2R,3R)-2-(1-Benzylcarbamoylethylcarbamoyl)-3-(N^2-(N-benzyloxycarbonylalanylalanyl)-N^1-carbamoylmethylhydrazinocarbonyl)oxirane]
- IC50 [10]: > 2 µM

Compound: trans-3-(N-(N-tert-Butoxycarbonylnorvalyl)-N^1-phenylethylhydrazinocarbonyl)oxirane-2-carboxylic Acid Ethyl Ester [Boc-Nva-AHph-trans-EP-COOEt]
- kobs/[I] papain [4]: 1.4 M⁻¹ s⁻¹
- kobs/[I] cathepsin B [6]: 2.7 M⁻¹ s⁻¹
- kobs/[I] DPPI [9]: 0.5 M⁻¹ s⁻¹

Compound: CC(NC(=O)OCc1ccccc1)C(=O)NC(C)C(=O)NN(CC(N)=O)C(=O)C1OC1C(=O)NCc1ccccc1 [12d, (2S,3S)-2-(2-Benzylcarbamoyl)-3-(N^2-(N-benzyloxycarbonylalanylalanyl)-N^1-carbamoylmethylhydrazinocarbonyl)oxirane]
- IC50 [10]: > 2 µM

Compound: CCCCC(N)C(=O)NN(CCc1ccccc1)C(=O)C1OC1C(=O)OCC.O=C(O)C(F)(F)F (stereo not drawn) [Nle-AHph-trans-EP-COOEt.TFA, trans-3-(N^2-Norleucyl)-N^1-phenylethylhydrazinocarbonyl)oxirane-2-carboxylic Acid Ethyl Ester Trifluoroacetate Salt]
- kobs/[I] DPPI [9]: 8.2 M⁻¹ s⁻¹
